Assay results as given in paper PMC4912613, “A broad analysis of resistance development in the malaria parasite” (Nature Communications, 2016).
Read-outs that look alike come from different tables or passages of the source.

Columns and labels:
3D7 = assay: Cross-resistance EC50 assay, 3D7 parent / sensitive strain; assay type: cell-based; conditions: Plasmodium falciparum
From the text: (§1) Multidrug resistance alleles, including mutations in P. falciparum chloroquine resistance transporter (pfcrt) and P. falciparum multi-drug resistance transporter 1 (pfmdr1) are very common in field isolates. Therefore, we sought to assess the degree to which pre-existing resistance alleles would contribute to a loss of potency for this diverse collection of small molecule compounds. Fifteen clones derived from three main parent lines were chosen to maximize diversity in mutated pathways and genetic backgrounds, thus representing the variety of resistance seen in the field: 3D7 (ref. [23]), W2 (ref. [24]) or Dd2 (ref. [25]). The 3D7 line originates from the clone of a Netherlands clinical isolate strain[23][26] and is generally considered to be drug sensitive, though it does convey resistance to sulfadoxine. Conversely, W2 (ref. [24], [27]) and Dd2 (ref. [25]) are multi-drug-resistant lines originating from the Indochina III/CDC isolate, which contain point mutations in pfcrt as well as amplifications in pfmdr1 and GTP cyclohydrolase.
(§2) To evaluate potential overlapping activity against known antimalarial drug targets, we performed dose-response studies with each compound against our assembled set of drug-resistant lines and their corresponding parents, in an asexual blood stage proliferation assay (Table 1). Comparisons were made to the drug-sensitive strain 3D7 when a parent was unavailable (TM90C2A, W2 and Dd2). As laboratories conducted EC50 assays with different strains and protocols, all comparisons were made between assays from the same laboratory and under the same assay conditions. Compounds displaying >5-fold EC50 shifts relative to the parent or sensitive strain were flagged as having potentially non-novel targets. Average fold shifts per strain ranged from 0.82 to 2.34, with a median of 1.23 indicating there was not common resistance to any one resistant clone. No resistance patterns were observed when classifying the compounds based on chemical structure, but this was not surprising given the diversity of compounds chosen. On the other hand, given that these confirmed compounds were derived from larger unconfirmed hit lists to which some filtration criteria may have been applied (for example, elimination of obvious dihydrofolate reductase inhibitors[32]), some[10][11][12][13] pre-existing bias may exist in the set.
The 48-h assay was carried out in a 96-well format following standard methods using the ^3H-hypoxanthine incorporation assay. The raw EC50 values corresponding to this assay can be found in Supplementary Data 3. Briefly, this assay relies on the parasite incorporation of labelled hypoxanthine that is proportional to P. falciparum growth. A culture of parasitized RBCs (0.5% parasitemia with a percentage of ring stage higher than 70% of total parasitemia, 2.0% haematocrit) in RPMI-1640, […] and 5 μM hypoxanthine was exposed to drug serial dilutions. Plates were incubated for 24 h at 37 °C, 5% CO2, 5% O2 and 90% N2. After 24 h of incubation, ^3H-hypoxanthine was added and plates were incubated for an additional 24-h period. After that, parasites were harvested on a glass fibre filter using a TOMTEC Cell Harvester 96. Filters were dried and melt-on scintillator sheets were used to determine the incorporation of ^3H-hypoxanthine. Radioactivity was measured using a microbeta counter. Data were normalized using the incorporation of the positive (parasitized RBCs without drug) and negative (same culture with artesunate at 2 μM) controls. All assays were conducted in triplicate using three independently grown cultures, and EC50 values were determined using the XLfit add-in module for Excel (version 2.3.1) from Grafit (version 5.3.1.3), where parameter h is the assay hill slope, x is the compound concentration and y is the inhibition of growth effect. The XLfit equation is: […]
Alternatively, a SYBR Green-based proliferation approach was used for the 72-h assay, as previously described. […]

[1] = test system: GNF156R (PfCARL L830V, S1076I and M81I, parent Dd2); assay: Cross-resistance EC50 assay, GNF156R; assay type: cell-based; conditions: Plasmodium falciparum, SYBR green 72 hour assay, asynchronized parasites, 96-well or 1536-well format
From the text: as §2, with “set. […]” for “set.”
(§3) Alternatively, a SYBR Green-based proliferation approach was used for the 72-h assay, as previously described. Briefly, a culture of either synchronized or asynchronous parasitized RBCs (0.3% parasitemia and 4% haematocrit) in screening medium (identical to supplemented medium above except no serum was added) was exposed to serial drug dilutions. Plates were incubated at 37 °C and gassed with 93% N2, 4% CO2 and 3% O2 for 72 h. Following incubation, 10 × SYBR Green I (Invitrogen; supplied in 10,000 × concentration) in lysis buffer ([…], 5 mM EDTA, 0.16% Saponin wt per vol and 1.6% Triton X vol per vol) was added to the wells and the plates were incubated overnight at room temperature before plate reading. EC50 assays were repeated three times, taking the average EC50 value from each assay set, and removing any outliers using a single iteration of Grubbs' test, eliminating values with z-scores above the critical z-value (α=0.05). The raw EC50 values for synchronized parasites assayed in a 384-well format are listed in Supplementary Data 4. The raw EC50 values for asynchronous parasites assayed in a 96 or 1536-well format are listed in Supplementary Data 5.
(§4) EC50 values for each strain were compared with those of the corresponding parent strain to determine fold-shift changes and identify resistance. To minimize the cause variance between assays, all comparisons were conducted between strains assayed under identical conditions. A one-way ANOVA followed by a Dunnet's post-test was conducted in GraphPad Prism to identify significant changes between the parent and resistant strain.

[2] = test system: ATQ-R4 (cytb M133I and L144S, parent 3D7); assay: Cross-resistance EC50 assay, ATQ-R4; assay type: cell-based, Plasmodium falciparum; conditions: Plasmodium falciparum, 3D7; SYBR green 72 hour assay; asynchronized parasites; 96-well or 1536-well format; ATQ-R4
From the text: as §2, with “set. […]” for “set.”
as §3, §4

Dd2 = assay: Cross-resistance EC50 assay, Dd2 parent; assay type: cell-based, Plasmodium falciparum; conditions: for EC50: Plasmodium falciparum, DD2, 72 h
From the text: as §1
as §2, with “set. […]” for “set.”
as §3, §4

[3] = SYBR green 72 hour assay, asynchronized parasites, 96-well or 1536-well format, 3D7 parent, read-out: 3D7 (PARENT) EC50 (µM) Average EC50
[4] = SYBR green 72 hour assay, synchronized parasites, 384-well format, strain 3D7 (parent), read-out: 3D7 (PARENT) Average EC50
[5] = hypoxanthine 48-hour assay, synchronized parasites, 96-well format, strain 3D7 (parent), read-out: 3D7 (PARENT) Average EC50
[6] = hypoxanthine 48-hour assay, synchronized parasites, 96-well format, strain 3D7-C9-WT (parent of PfATP4 Mut3), read-out: 3D7-C9-WT (PARENT) Average EC50
[7] = read-out: Dd2 (PARENT) Average EC50
[8] = read-out: Dd2 (PARENT) EC50 (µM) Average EC50

Compound	EC50 (3D7; [3]) [µM]	EC50 (3D7; [4]) [µM]	EC50 (3D7; [5]) [µM]	EC50 (3D7; [6]) [µM]	EC50 [1] [µM]	EC50 [2] [µM]	EC50 (Dd2; [7]) [µM]	EC50 (Dd2; [8]) [µM]	EC50 fold-shift, Dd2 compared with 3D7, average (Dd2; average) [×]
O=C(Nc1ccsc1C(=O)NC1CCCCC1)c1ccc(F)cc1 [MMV665939]	1.22	0.726	1.04	2.1	1.28	3.73	1.96	2.06	2.4
CCN(CC)CCn1c(=N)n(CC(O)c2ccc(Cl)c(Cl)c2)c2ccccc21.Cl (stereo not drawn) [MMV000248]	0.138	0.236	0.308	0.399	0.432	0.177	0.424	0.413	
Cc1ccc(Oc2ncccc2C(=O)Cc2cccc3cccnc23)c(C)c1 [MMV020746]	0.993	0.096	0.074	0.093	3.38	1.97	0.241	1.86	
CN(C)Cc1ccc(-c2cc3c(-c4ccc(CN(C)C)cc4)ccnc3[nH]2)cc1.O=C(O)C(F)(F)F [MMV022224]	0.224	0.242	0.343	0.356	0.429	0.372	0.41	0.302	
OC(CNC1CCCCC1)Cn1c2ccc(I)cc2c2cc(I)ccc21 (stereo not drawn) [MMV665882]	0.023	0.035	0.075	0.158	0.068	0.026	0.05	0.038	
Nc1ccc(-c2nc3cc(Oc4ccc(Oc5ccc6[nH]c(-c7ccc(N)cc7)nc6c5)cc4)ccc3[nH]2)cc1 [MMV011895]	0.24	0.169	0.158		0.126	0.545	0.259	0.431	
CC(C)(C)OC(=O)N1CCN(c2ccccc2NC(=O)c2cccc(C(F)(F)F)c2Oc2ccc(F)cc2)CC1 [MMV030666]	0.122	0.627	0.494	0.333	0.364	0.448	0.374	0.255	
O=C(Nc1ccc(Cl)c(Cl)c1)Nc1ccc(Cl)c(Cl)c1 [MMV665852]	1.55	1.16	1.24		0.75	2.89	0.894	1.8	
